Test results reported in patent publication US6410792B1, “Amide derivatives and methods for using the same as selective neuropeptide Y receptor antagonists” (Bayer Corporation, priority 1997, dated 2002).

Columns and labels:
[1] = biological target: T1, Human NPY1 receptor (Homo sapiens, UniProt P25929); experiment: Human NPY1 receptor binding assay ([125I]PYY, SK-N-MC cells); settings: [125I]PYY, SK-N-MC cells; read-out: hNPYI IC50
T1 construct: host or cells: SK-N-MC cells
T1 sequence (P25929 1-384): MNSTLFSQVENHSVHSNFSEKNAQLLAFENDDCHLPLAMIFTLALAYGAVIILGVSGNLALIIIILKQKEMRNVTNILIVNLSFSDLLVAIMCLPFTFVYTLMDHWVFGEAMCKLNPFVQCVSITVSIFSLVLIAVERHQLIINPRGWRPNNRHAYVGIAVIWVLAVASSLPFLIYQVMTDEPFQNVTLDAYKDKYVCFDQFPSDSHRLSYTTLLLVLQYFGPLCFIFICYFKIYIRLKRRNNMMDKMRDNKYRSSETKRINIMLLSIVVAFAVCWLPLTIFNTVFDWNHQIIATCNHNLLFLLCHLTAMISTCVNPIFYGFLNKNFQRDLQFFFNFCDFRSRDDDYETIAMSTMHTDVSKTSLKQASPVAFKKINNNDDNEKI
Procedure, shortened: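 Whole-cell competition with ~50 pM [125I]PYY on SK-N-MC monolayers, 3 h at room temperature after 30 min preincubation in HEPES-buffered (pH 7.3) serum-free DMEM containing protease inhibitors. Gamma counting of cell lysates; 1 μM NPY gave nonspecific binding.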

[2] = biological target: T2, Y2 receptor (Homo sapiens, UniProt P49146); experiment: Y2 receptor binding assay ([125I]PYY, membrane protein); settings: [125I]PYY, membrane protein; read-out: hNPY2 IC50
T2 sequence (P49146 1-381): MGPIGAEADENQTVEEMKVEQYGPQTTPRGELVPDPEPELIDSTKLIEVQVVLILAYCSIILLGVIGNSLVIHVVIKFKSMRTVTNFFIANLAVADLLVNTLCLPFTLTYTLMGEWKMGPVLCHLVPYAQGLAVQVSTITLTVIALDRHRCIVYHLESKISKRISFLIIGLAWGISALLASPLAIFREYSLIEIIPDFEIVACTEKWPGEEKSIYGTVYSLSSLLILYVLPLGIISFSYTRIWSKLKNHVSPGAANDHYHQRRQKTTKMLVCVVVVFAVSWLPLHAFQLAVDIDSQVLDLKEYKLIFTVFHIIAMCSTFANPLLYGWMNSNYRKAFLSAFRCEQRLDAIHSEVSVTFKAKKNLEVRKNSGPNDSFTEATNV
Procedure, shortened: (§1)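 Filtration binding with membrane protein and drug dilution, 2 h at room temperature with mixing, radioactivity counted by gamma or scintillation. Y2: 25 pM [125I]PYY in Krebs-Ringer bicarbonate pH 7.4 with 0.01% BSA, nonspecific by 1 μM NPY. Y4/PP1: 50 pM [125I]hPP in HEPES-buffered saline pH 7.4 with protease inhibitors and 0.3% BSA, nonspecific by 1 μM hPP.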

[3] = biological target: human Y4/PP1 receptor (Homo sapiens, UniProt P50391); experiment: Human Y4/PP1 receptor binding assay ([125I]human PP, membrane protein); settings: [125I]human PP, membrane protein; read-out: hNPY4 IC50
Chain of human Y4/PP1 receptor (P50391 whole entry): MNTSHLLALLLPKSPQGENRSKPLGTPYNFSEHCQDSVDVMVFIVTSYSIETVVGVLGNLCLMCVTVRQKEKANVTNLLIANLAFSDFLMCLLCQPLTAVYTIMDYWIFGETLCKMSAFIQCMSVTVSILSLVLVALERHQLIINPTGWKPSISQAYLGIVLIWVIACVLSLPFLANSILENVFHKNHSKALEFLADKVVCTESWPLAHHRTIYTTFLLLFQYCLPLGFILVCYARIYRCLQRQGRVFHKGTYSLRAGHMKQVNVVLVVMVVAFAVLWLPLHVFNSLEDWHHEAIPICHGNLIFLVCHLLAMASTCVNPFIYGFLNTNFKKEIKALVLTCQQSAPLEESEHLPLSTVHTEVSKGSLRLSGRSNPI
Procedure, shortened: as §1

[4] = biological target: T3, Human NPY5 receptor (Homo sapiens, UniProt Q15761); experiment: Human NPY5 receptor binding assay ([125I]PYY, membrane protein); settings: [125I]PYY, read-out: hNPY5 IC50
T3 sequence (Q15761 1-445): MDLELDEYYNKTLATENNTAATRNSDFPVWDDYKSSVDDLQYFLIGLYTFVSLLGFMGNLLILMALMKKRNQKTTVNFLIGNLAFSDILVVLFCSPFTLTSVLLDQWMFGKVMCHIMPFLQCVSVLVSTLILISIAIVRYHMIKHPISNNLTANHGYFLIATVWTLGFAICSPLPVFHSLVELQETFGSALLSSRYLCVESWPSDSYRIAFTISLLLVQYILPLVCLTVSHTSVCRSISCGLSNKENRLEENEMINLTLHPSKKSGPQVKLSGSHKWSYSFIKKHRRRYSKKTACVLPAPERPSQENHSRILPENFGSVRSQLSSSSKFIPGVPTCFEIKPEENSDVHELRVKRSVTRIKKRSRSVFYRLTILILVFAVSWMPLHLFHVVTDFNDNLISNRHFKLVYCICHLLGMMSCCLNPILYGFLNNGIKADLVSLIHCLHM
Procedure, shortened: (§2)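 Competition against porcine [125I]PYY (75-100 pM) on receptor membranes, 2 h, room temperature, Tris-based pH 7.4 buffer with BSA and bacitracin. Bound radioactivity after filtration and ice-cold rinse counted by gamma or liquid scintillation; 1 μM PYY defines nonspecific binding.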

[5] = biological target: T4, Rat NPY5 receptor (Rattus norvegicus, UniProt Q63634); experiment: Rat NPY5 cyclase assay (in vitro functional assay, forskolin-stimulated adenylate cyclase, cAMP); type: cell-based; settings: 10 μM, percentage of forskolin-stimulated adenylate cyclase; for activity at 10 µM: 20 min, read-out: rNPY5 % FSAC (10 μM)
T4 sequence (Q63634 1-445): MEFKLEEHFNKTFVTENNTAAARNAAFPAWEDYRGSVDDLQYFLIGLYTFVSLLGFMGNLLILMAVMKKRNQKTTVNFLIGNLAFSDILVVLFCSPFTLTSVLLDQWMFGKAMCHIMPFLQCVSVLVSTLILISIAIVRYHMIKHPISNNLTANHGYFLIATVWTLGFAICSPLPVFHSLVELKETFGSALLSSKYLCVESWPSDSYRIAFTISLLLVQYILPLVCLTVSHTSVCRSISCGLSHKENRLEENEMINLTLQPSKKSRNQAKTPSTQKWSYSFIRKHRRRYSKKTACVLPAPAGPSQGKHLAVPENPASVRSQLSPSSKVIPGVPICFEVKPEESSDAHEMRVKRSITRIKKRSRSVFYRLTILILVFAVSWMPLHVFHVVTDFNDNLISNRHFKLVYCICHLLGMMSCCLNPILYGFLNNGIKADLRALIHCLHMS
Procedure: D. Rat NYP5 Cyclase Assay (In Vitro Functional Assay)
Cells stably expressing the rat NPY5 receptor are resuspended in serum-free DMEM containing 10 mM HEPES (pH 7.4) and 1 mM isobutylmethylxanthine (IBMX). […] forskolin and drug dilution are then added to the cells. After a 20 minute incubation of the samples at 37° C, the assay is stopped by placing the samples in boiling water for 3 minutes. The cAMP produced in each sample is quantitated with a radioimmunoassay kit (NEN DuPont). Data are expressed as a percentage of forskolin-stimulated adenylate cyclase.

[6] = biological target: T4, Rat NPY5 receptor; experiment: Rat NPY5 receptor binding assay ([125I]PYY, membrane protein); settings: [125I]PYY, read-out: rNPY5 IC50
Procedure, shortened: as §2

| SMILES | IC50 [1] | IC50 [2] | IC50 [3] | IC50 [4] | activity at 10 µM [5] | melting point | IC50 [6] | rNPY5 % FSAC (10 μM) [5] |
| --- | --- | --- | --- | --- | --- | --- | --- | --- |
| O=C(CN1CCC(n2c(=O)[nH]c3ccccc32)CC1)Nc1ccc(C2CCCCC2)cc1 [Compound 251, N-(4-Cyclohexyl-phenyl)-2-[4-(2-oxo-2,3-dihydrobenzoimidazol-1-yl)-piperidin-1-yl]-acetamide] | > 5000 nM | > 5000 nM | > 5000 nM | 4 nM | 92% | 130 to 132 °C | – | – |
| CCCc1ccc(NC(=O)CN2CCC(n3c(=O)[nH]c4ccccc43)CC2)cc1 [Compound 253, 2-[4-(2-Oxo-2,3-dihydro-benzoimidazol-1-yl)-piperidin-1-yl]-N-(4-propyl-phenyl)-acetamide] | > 5000 nM | > 5000 nM | > 5000 nM | 63 nM | 99% | 116 to 117 °C | 50 nM | – |
| CCCCc1ccc(NC(=O)CN2CCC(n3c(=O)[nH]c4ccccc43)CC2)cc1 [Compound 254, N-(4-Butyl-phenyl)-2-[4-(2-oxo-2,3-dihydro-benzoimidazol-1-yl)-piperidin-1-yl]-acetamide] | > 5000 nM | > 5000 nM | > 5000 nM | 43 nM | 103% | 130 to 131 °C | – | – |
| CCCCCc1ccc(NC(=O)CN2CCC(n3c(=O)[nH]c4ccccc43)CC2)cc1 [Compound 255, 2-[4-(2-Oxo-2,3-dihydro-benzoimidazol-1-yl)-piperidin-1-yl]-N-(4-pentyl-phenyl)-acetamide] | > 5000 nM | > 5000 nM | > 5000 nM | 74 nM | 95% | 127 to 128 °C | – | – |
| CCCCCCc1ccc(NC(=O)CN2CCC(n3c(=O)[nH]c4ccccc43)CC2)cc1 [Compound 256, N-(4-Hexyl-phenyl)-2-[4-(2-oxo-2,3-dihydro-benzoimidazol-1-yl)-piperidin-1-yl]-acetamide] | > 5000 nM | > 5000 nM | > 5000 nM | 120 nM | 92% | 128 to 129 °C | – | – |
| CC(C)c1ccc(NC(=O)CN2CCC(n3c(=O)[nH]c4ccccc43)CC2)cc1 [Compound 257, N-(4-Isopropyl-phenyl)-2-[4-(2-oxo-2,3-dihydro-benzoimidazol-1-yl)-piperidin-1-yl]-acetamide] | > 5000 nM | > 5000 nM | > 5000 nM | 110 nM | 88% | 133 to 134 °C | – | – |
| O=C(CN1CCC(n2c(=O)[nH]c3ccccc32)CC1)Nc1ccc(-c2ccc(F)cc2)cc1 [Compound 259, N-(4′-Fluoro-biphenyl-4-yl)-2-[4-(2-oxo-2,3-dihydro-benzoimidazol-1-yl)-piperidin-1-yl]-acetamide] | > 5000 nM | > 5000 nM | > 5000 nM | 150 nM | 101% | 228 to 229 °C | 87 nM | – |
| Cl.O=C(CN1CCC(n2c(=O)[nH]c3ccccc32)CC1)Nc1ccc(C(=O)c2ccccc2)cc1 [Compound 263, N-(4-Benzoyl-phenyl)-2-[4-(2-oxo-2,3-dihydro-benzoimidazol-1-yl)-piperidin-1-yl]-acetamide; hydrochloride] | – | > 5000 nM | > 5000 nM | 4 nM | 97% | 215 to 216 °C | 3 nM | – |
| O=C(CN1CCC(n2c(=O)[nH]c3ccccc32)CC1)Nc1ccc(-c2ccccc2)cc1 [Compound 275, N-Biphenyl-4-yl-2-[4-(2-oxo-2,3-dihydro-benzoimidazol-1-yl)-piperidin-1-yl]-acetamide] | > 5000 nM | > 5000 nM | > 5000 nM | 42 nM | 103% | 180 to 181 °C | 19 nM | – |
| Cl.O=C(CN1CCC(n2c(=O)[nH]c3ccccc32)CC1)NCCc1ccccc1 [Compound 280, 2-[4-(2-Oxo-2,3-dihydro-benzoimidazol-1-yl)-piperidin-1-yl]-N-phenethyl-acetamide; hydrochloride] | > 5000 nM | > 5000 nM | > 5000 nM | – | 90% | 181 to 182 °C | – | – |
| CC(=O)NC1CCN(CC(=O)Nc2ccc(C3CCCCC3)cc2)C1 (centres unmarked) [Compound 290, 2-(3-Acetylamino-pyrrolidin-1-yl)-N-(4-cyclohexyl-phenyl)-acetamide] | > 5000 nM | > 5000 nM | > 5000 nM | 38 nM | 101% | 105 to 110 °C | 19 nM | – |
| Cl.O=C(CN1CCC(n2c(=O)[nH]c3ccccc32)CC1)Nc1ccc2c(c1)-c1ccccc1C2=O [Compound 311, 2-[4-(2-Oxo-2,3-dihydro-benzoimidazol-1-yl)-piperidin-1-yl]-N-(9-oxo-9H-fluoren-3-yl)-acetamide; hydrochloride] | – | – | – | 0.47 nM | 95% | 258 °C | 0.34 nM | – |
| Cl.O=C(CN1CCC(n2c(=O)[nH]c3ccccc32)CC1)Nc1ccc(-c2ccc(F)cc2)cc1 [Compound 327, N-(4′-Fluoro-biphenyl-4-yl)-2-[4-(2-oxo-2,3-dihydro-benzoimidazol-1-yl)-piperidin-1-yl]-acetamide; hydrochloride] | – | – | – | 110 nM | – | 289 °C | 60 nM | 101% |
| Cc1ccc(NC(=O)CN2CCC(n3c(=O)[nH]c4ccccc43)CC2)cc1 [Compound 359, 2-[4-(2-Oxo-2,3-dihydro-benzoimidazol-1-yl)-piperidin-1-yl]-N-p-tolyl-acetamide, reference compound] | > 5000 nM | > 5000 nM | > 5000 nM | 1300 nM | 104% | – | 1200 nM | – |
